Source: article PMC12903857
Values joined by “and” are separate entries in the source; they are usually repeats but may differ in a detail not shown here. Equal values may be shown once.

Legend:
14-3-3σ [1] = molecular target: T1, 14-3-3σ (Homo sapiens, UniProt P31947); assay: FA, Kd of 15-mer RAF peptides
T1 sequence (P31947 1-248): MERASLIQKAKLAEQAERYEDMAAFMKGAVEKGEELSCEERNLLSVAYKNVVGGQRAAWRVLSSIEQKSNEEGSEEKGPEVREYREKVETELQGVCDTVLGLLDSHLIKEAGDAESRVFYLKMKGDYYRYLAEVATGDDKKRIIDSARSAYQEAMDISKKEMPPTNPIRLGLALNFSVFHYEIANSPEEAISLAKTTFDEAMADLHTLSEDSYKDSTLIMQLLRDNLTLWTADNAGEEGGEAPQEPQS
Experimental: (§6) Ea ch compound was measured in triplicates, i n two i ndependent experi ments. Fluorescence anisotropy measurements were performed directly and a€er overnight incubaton at room temperature.
(§7) Fluorescence anisotropy measurements were performed a€er overnight incubaton at room temperature .

14-3-3σ/B-RAF365 = molecular target: T2, 14-3-3σ/B-RAF365 (Homo sapiens, UniProt P31947); assay: Intact mass spectrometry assay with B-RAF365 peptide; assay type: binding; conditions: 1 μM compound, 100 nM 14-3-3σ, 5 µM peptide
T2 construct: full-length for mass spectrometry and fluorescence anisotropy assays; made in house; host or cells: E. coli Rosetta 2(DE3)pLysS (14-3-3σ); peptides from Elim Biopharmaceuticals

14-3-3σ/C-RAF259 [2] = molecular target: T3, 14-3-3σ/C-RAF259 (Homo sapiens, UniProt P31947); assay: Fluorescence anisotropy (FA) compound titration; assay type: binding; conditions: 10 nM C-RAF259-FAM 10-mer, 5 μΜ 14-3-3σ, overnight; read-out: Compound titrations EC50 value C-RAF259
Experimental: (§1) In analogy to our previous work, two orthogonal assays were used for screening (Figure S2). […] Dose responses of compounds were performed in the absence and presence of the C-RAF259 phospho-peptide to distinguish between neutral binders and cooperative molecular glues. The experiment was performed as a time course, with measurements every 8 h, after an 1 h incubation. Additionally, the compounds were tested in a fluorescence anisotropy (FA) assay in the presence of the 5-carboxyfluorescein-(FAM)-labeled C-RAF259 peptide. […] The full dose–response data for all compounds are available in the SI (Tables S2–S5, Figures S5–S8, Figures S15–S18, Figures S25–S32, Figures S37–S39). The dose–response data from both assays were also visually compared in the form of bar graphs. […] For FA experiments, the EC50 values from the overnight measurement were calculated and plotted as bar graphs showing the […] log EC50 value (pEC50). Compounds acting as MGs were expected to show increases in both types of bar graphs.
(§2) transferred in the assay plates.
(§3) The reacton mixtures were incubated
(§4) dispensed in the assay plates.
(§5) incubaton at room temperature .

pERK [3] = assay: Lumit immunoassay for pERK levels in HEK293T cells; assay type: cell-based; conditions: for time taken to modulate the pathway: pERK modulation
14-3-3σ/C-RAF [4] = molecular target: T4, 14-3-3σ/C-RAF (Homo sapiens, UniProt P31947); conditions: HEK293T cells, mBU compound / mBU DMSO
T4 sequence (P04049 whole entry partner, one chain of several): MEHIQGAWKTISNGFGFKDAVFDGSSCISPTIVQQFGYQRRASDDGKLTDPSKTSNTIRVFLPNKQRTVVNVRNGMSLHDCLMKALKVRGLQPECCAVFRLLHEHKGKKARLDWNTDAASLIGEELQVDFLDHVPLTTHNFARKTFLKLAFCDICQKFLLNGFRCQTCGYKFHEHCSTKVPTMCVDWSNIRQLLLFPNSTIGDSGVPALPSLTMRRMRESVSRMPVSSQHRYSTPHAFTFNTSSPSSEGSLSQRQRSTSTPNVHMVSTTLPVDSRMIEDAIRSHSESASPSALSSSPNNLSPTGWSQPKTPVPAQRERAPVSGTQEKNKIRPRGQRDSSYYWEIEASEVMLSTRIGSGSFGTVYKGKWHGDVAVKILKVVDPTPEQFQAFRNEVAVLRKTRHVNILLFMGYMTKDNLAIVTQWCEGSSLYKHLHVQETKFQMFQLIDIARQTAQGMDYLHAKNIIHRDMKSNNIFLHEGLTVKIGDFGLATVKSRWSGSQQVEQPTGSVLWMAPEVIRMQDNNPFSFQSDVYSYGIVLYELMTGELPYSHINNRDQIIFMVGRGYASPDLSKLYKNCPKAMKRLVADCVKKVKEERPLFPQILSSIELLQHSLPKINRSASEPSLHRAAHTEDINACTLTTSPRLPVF
Experimental: Stabilization of the interaction with a molecular glue was expected to lead to an increase in the intensity of the BRET signal.
Both cell lines were grown in
All compound treatments were 24 hours.
Brieﬂy, HEK293T cells were

N-RAS Q61L/C-RAF = conditions: HEK293T; 100% = DMSO mBU, 0% = N-RAS/C-RAF R89L
14-3-3σ/C-RAF259 [5] = molecular target: T3, 14-3-3σ/C-RAF259; assay: FA protein titration, C-RAF259 peptide; conditions: appKd DMSO / appKd compound
Experimental: The following peptdes were used in the FA selectvity panel:
SOS1 pS1161: FITC-Ahx-PRRRPE{pS}APAESS-CONH2, TSC2 pS1254: FAM-Ahx-LY K S L { p S } V PA A S TA K-CONH2, ARHG2 pS886: FAM-Ahx-PVDPRRR{pS}LPAGDAL-CONH2.
Mass spectrometry dose response assays were performed on a Waters Acquity UPLC/ Xevo G2-XS Q-To f m a s s
samples prior to applicaton on the mass spectrometer. For 19-point MS dose responses, 50 mM compound stocks
Assay buﬀer was TRIS (10 mM, pH 8.0) and ﬁnal volume per well was 50
μL, with ﬁnal top concentraton of compounds dose response series at 1 mM.
24 μL of sample were needed for the tme-course
(BSA; Sigma-Aldrich). Final DMSO in the assay was less than 1%. Diluton series of 14-3-3 proteins or compounds
dispensed in the assay plates. […] Ea ch compound was measured in triplicates, i n two i ndependent experi ments. Fluorescence anisotropy measurements were performed directly and a€er overnight incubaton at room temperature. The high
(10 nM) and DMSO or compound (100 µM). Fluorescence anisotropy measurements were performed a€er overnight incubaton at room temperature .

14-3-3σ/A-RAF214 = 14-3-3σ/A-RAF214 (Homo sapiens, UniProt P31947); assay: Intact mass spectrometry assay with A-RAF214 peptide; conditions: 1 μM compound, 100 nM 14-3-3σ, 16 µM peptide
Experimental: as §6, §7

14-3-3σ [6] = molecular target: T1, 14-3-3σ; assay: Intact mass spectrometry assay, apo (no peptide); assay type: binding; design: full-length for mass spectrometry and fluorescence anisotropy assays; made in house; host or cells: E. coli Rosetta 2(DE3)pLysS, pPROEX HTb vector; conditions: 1 μM compound, 100 nM 14-3-3σ
Experimental: as §1, §2, §3, §4, §5

14-3-3σ/C-RAF259 [7] = molecular target: T3, 14-3-3σ/C-RAF259; assay: Intact mass spectrometry assay with C-RAF259 phospho-peptide; assay type: binding; design: full-length for mass spectrometry and fluorescence anisotropy assays; made in house; host or cells: E. coli Rosetta 2(DE3)pLysS (14-3-3σ); peptides from Elim Biopharmaceuticals; conditions: 1 μM compound, 100 nM 14-3-3σ, 18 µM peptide
Experimental: as §1, §2, §3, §4, §5

[8] = test system: 80 peptides representing a diverse set of 14-3-3 clients; assay: FA selectivity panel, single point; conditions: 10.5 μM compound, 100 nM client peptides, overnight; hit = change in anisotropy of more than 15 units
Experimental: concentraton (50 μM, maximum eﬀect) was used.
giving the anisotropy change (ΔAU ) .
sele tme: 0 ms, gain: optmal).

14-3-3σ/C-RAF [9] = molecular target: T4, 14-3-3σ/C-RAF; assay: cell-based
C-RAF/C-RAF = conditions: with N-RAS Q61L; 100% = DMSO mBU
[10] = Solubility in the assay conditions; assay type: physicochemical; conditions: MS assay conditions
pERK [11] = assay: Lumit immunoassay for pERK with 14-3-3 C38N mutant; assay type: cell-based; conditions: HEK293T

Compound	EC50 (14-3-3σ/C-RAF259 [2]) [µM]	Fold stabilization (100 µM compound), C-RAF259 (10mer) (14-3-3σ/C-RAF259 [5])	% bound, APO, 1h (14-3-3σ [6]) [%]	% bound, APO, 8h (14-3-3σ [6]) [%]	% bound, APO, 16h (14-3-3σ [6]) [%]	% bound, APO, 24h (14-3-3σ [6]) [%]	% bound, C-RAF259 (11mer), 1h (14-3-3σ/C-RAF259 [7]; 1 h)	% bound, C-RAF259 (11mer), 8h (14-3-3σ/C-RAF259 [7]; 8 h)	% bound, C-RAF259 (11mer), 16h (14-3-3σ/C-RAF259 [7]; 16 h) [%]	% bound, C-RAF259 (11mer), 24h (14-3-3σ/C-RAF259 [7]; 24 h)	other results
CC[C@H](C)[C@H](NC(=O)[C@H](CCCNC(=N)N)NC(=O)[C@H](CCC(N)=O)NC(=O)[C@H](CC(C)C)NC(=O)c1ccc2c(c1)C(=O)OC21c2ccc(O)cc2Oc2cc(O)ccc21)C(=O)N[C@@H](CCCNC(=N)N)C(=O)N[C@@H](CO)C(=O)N[C@H](C(=O)N[C@@H](COP(=O)(O)O)C(=O)N[C@H](C(=O)N1CCC[C@H]1C(=O)N[C@@H](CC(N)=O)C(=O)N[C@H](C(=O)N[C@@H](Cc1c[nH]cn1)C(=O)N[C@@H](CCSC)C(=O)N[C@H](C(N)=O)C(C)C)C(C)C)[C@@H](C)O)[C@@H](C)O [A-RAF 15-mer]											Kd (14-3-3σ [1]): 8 to 10 µM
CSCC[C@H](NC(=O)[C@H](Cc1c[nH]cn1)NC(=O)[C@@H](NC(=O)[C@H](CC(N)=O)NC(=O)[C@@H]1CCCN1C(=O)[C@@H](NC(=O)[C@H](COP(=O)(O)O)NC(=O)[C@@H](NC(=O)[C@H](CO)NC(=O)[C@H](CCCNC(=N)N)NC(=O)[C@H](CCC(N)=O)NC(=O)[C@H](CCCNC(=N)N)NC(=O)[C@H](CCC(N)=O)NC(=O)[C@H](CO)NC(=O)c1ccc2c(c1)C(=O)OC21c2ccc(O)cc2Oc2cc(O)ccc21)[C@@H](C)O)[C@@H](C)O)C(C)C)C(=O)N[C@H](C(N)=O)C(C)C [C-RAF 15-mer, 5-FAM-SQRQRST{pS}TPNVHMV-CONH2]											Kd (14-3-3σ [1]): 8 to 10 µM
O=C(CCl)NCC1CCN(S(=O)(=O)Cc2cccc(F)c2)CC1 [Compound 8]	> 1000	lacked an effect	0	0	1.9	2.9	2.9% and 0%	5.6% and 0%	5.6	5.6% and 2.9%	% bound, B-RAF365 (10mer), 1h (14-3-3σ/B-RAF365; 1 h): 0%; % bound, B-RAF365 (15mer), 1h (14-3-3σ/B-RAF365; 1 h): 0%; % bound, B-RAF365 (10mer), 8h (14-3-3σ/B-RAF365; 8 h): 0%; % bound, B-RAF365 (15mer), 8h (14-3-3σ/B-RAF365; 8 h): 0%; % bound, B-RAF365 (10mer), 16h (14-3-3σ/B-RAF365; 16 h): 2.5%; % bound, B-RAF365 (15mer), 16h (14-3-3σ/B-RAF365; 16 h): 0.9%; % bound, B-RAF365 (10mer), 24h (14-3-3σ/B-RAF365; 24 h): 2.5%; % bound, B-RAF365 (15mer), 24h (14-3-3σ/B-RAF365; 24 h): 3.8%; effect on phosphorylation of ERK (pERK [3]; HEK293T, 24 h, EGF stimulation, 23 at 10 μM): No effect; 14-3-3/C-RAF NanoBRET fold stab. (14-3-3σ/C-RAF [4]): No increase; reduction of the N-RAS Q61L/C-RAF interaction (N-RAS Q61L/C-RAF): did not affect; Fold stabilization (100 µM compound), C-RAF259 (10mer) (14-3-3σ/C-RAF259 [5]; listed as (8)): 1 fold; % bound, A-RAF214 (15mer), 1h (14-3-3σ/A-RAF214; 1 h): 0%; % bound, A-RAF214 (15mer), 8h (14-3-3σ/A-RAF214; 8 h): 0%; % bound, A-RAF214 (15mer), 16h (14-3-3σ/A-RAF214; 16 h): 0%; % bound, A-RAF214 (15mer), 24h (14-3-3σ/A-RAF214; 24 h): 0%; % bound, C-RAF259 (15mer), 1h (14-3-3σ/C-RAF259 [7]; 1 h): 0%; % bound, C-RAF259 (15mer), 8h (14-3-3σ/C-RAF259 [7]; 8 h): 0%; % bound, C-RAF259 (15mer), 16h (14-3-3σ/C-RAF259 [7]; 16 h): 0%; % bound, C-RAF259 (15mer), 24h (14-3-3σ/C-RAF259 [7]; 24 h): 0%
O=C(CCl)NCC1CCN(S(=O)(=O)c2ccc(Br)cc2)CC1 [Compound 22]											clients emerged as hits [8]: six
O=C(CCl)NCC1CCN(S(=O)(=O)c2ccc(Cl)c(F)c2)CC1 [Compound 29]	1 ± 0.5										EC50 (14-3-3σ/C-RAF [9]): 0.14 µM
O=C(CCl)NCC1CCN(S(=O)(=O)c2cc(F)c(Br)c(F)c2)CC1 [Compound 40]	2 ± 1	13 fold	0	0.5	1.5	4.7	35.9%	60.5%	78.9	93.9%	
CC1(CNC(=O)CCl)CCN(S(=O)(=O)c2ccc(Br)c(F)c2)CC1 [Compound 46]	11 ± 1	49 fold	0.5	1.9	4.7	8.2	25.8%	39.4%	49	84%	
O=C(CCl)N1CC2CC1CN2S(=O)(=O)c1ccc(Br)c(F)c1 (stereo not drawn) [Compound 58]	12 ± 1	6 fold	4.7	17.3	28	51.8	16.5%	45.2%	71.2	80.5%	
O=C(CCl)N1CC2(CC(NS(=O)(=O)c3ccc(Br)c(F)c3)C2)C1 [Compound 64]	15 ± 2	2 fold	9.9	27.2	47.2	65	27.5%	53.6%	79	80.8%	
O=C(CCl)N1CC2(C1)CN(S(=O)(=O)c1ccc(Br)c(F)c1)CCO2 [Compound 70]	2										decrease in C-RAF homodimer formation (C-RAF/C-RAF): ~20%; reduction of the N-RAS Q61L/C-RAF interaction (N-RAS Q61L/C-RAF): no clear trend
O=C(CCl)N1CC2(C1)CN(S(=O)(=O)c1ccc(Br)cc1)CCO2 [Compound 78]	2 ± 1										solubility in the assay conditions [10]: poor solubility; decrease in C-RAF homodimer formation (C-RAF/C-RAF): ~20%; EC50 (14-3-3σ/C-RAF [9]): 1.2 µM; reduction of the N-RAS Q61L/C-RAF interaction (N-RAS Q61L/C-RAF): no clear trend
O=C(CCl)N1CC2(C1)CN(S(=O)(=O)c1ccc(I)cc1)CCO2 [Compound 79]	2 ± 1										solubility in the assay conditions [10]: poor solubility
O=C(CCl)N1CCC2(CCN(S(=O)(=O)c3ccc(Br)c(F)c3)C2)C1 (stereo not drawn) [Compound 86]	1 ± 1										EC50 (14-3-3σ/C-RAF [9]): 0.3 µM
CNc1ncc2cc(-c3cc(NC(=O)NCCC(C)(C)C)c(F)cc3C)c(C)nc2n1 [LY3009120, reference compound]											time taken to modulate the pathway (pERK [3]): 3 h
CC(=O)Nc1cccc(-n2c(=O)n(C3CC3)c(=O)c3c(Nc4ccc(I)cc4F)n(C)c(=O)c(C)c32)c1 [Trametinib, reference compound]											time taken to modulate the pathway (pERK [3]): 3 h; effect on pERK with the C38N mutant (pERK [11]): same effect
